These results are taken from ChEMBL document CHEMBL4765347, “Radiomodulatory effect of a non-electrophilic NQO1 inducer identified in a screen of new 6, 8-diiodoquinazolin-4(3H)-ones carrying a sulfonamide moiety” (Eur J Med Chem, 2020).

One assay concerns the target Nuclear factor erythroid 2-related factor 2 (Mus musculus) (UniProt Q60795). As to the kind of experiment: Activation of Nrf2 in mouse Hepa1c1c7 cells assessed as increase in NQO1 activity at 25 uM using menadione as substrate incubated for 20 mins followed by substrate addition and measured after 30 mins by spectrophotometry relative to control. Particulars: filed as activator, time 50.0 min.
In the case of `COc1ccc(NC(=O)CSc2nc3c(I)cc(I)cc3c(=O)n2-c2ccc(S(N)(=O)=O)cc2)cc1`, the T/C stood at 1.18.

Consider `NS(=O)(=O)c1ccc(-n2c(S)nc3c(I)cc(I)cc3c2=O)cc1`, for which the T/C amounted to 1.05.

For `COc1cc(NC(=O)CSc2nc3c(I)cc(I)cc3c(=O)n2-c2ccc(S(N)(=O)=O)cc2)cc(OC)c1`, the T/C came out at 1.73.

In the case of `Cc1ccc(NC(=O)CSc2nc3c(I)cc(I)cc3c(=O)n2-c2ccc(S(N)(=O)=O)cc2)cc1`, the T/C is 1.08.

For the molecule `CCc1ccc(NC(=O)CSc2nc3c(I)cc(I)cc3c(=O)n2-c2ccc(S(N)(=O)=O)cc2)cc1`, the T/C was found to be 1.03.

Regarding `Cc1ccccc1NC(=O)CSc1nc2c(I)cc(I)cc2c(=O)n1-c1ccc(S(N)(=O)=O)cc1`, the T/C turned out to be 1.31.

`Cc1cccc(NC(=O)CSc2nc3c(I)cc(I)cc3c(=O)n2-c2ccc(S(N)(=O)=O)cc2)c1`: the T/C worked out at 1.27.

Another assay has the same target. In words: Activation of Nrf2 in mouse Hepa1c1c7 cells assessed as increase in NQO1 activity at 50 uM using menadione as substrate incubated for 20 mins followed by substrate addition and measured after 30 mins by spectrophotometry relative to control. Particulars: filed as activator, time 50.0 min.
Consider `COc1ccc(NC(=O)CSc2nc3c(I)cc(I)cc3c(=O)n2-c2ccc(S(N)(=O)=O)cc2)cc1`, for which the T/C stood at 1.29.

As to `COc1cc(NC(=O)CSc2nc3c(I)cc(I)cc3c(=O)n2-c2ccc(S(N)(=O)=O)cc2)cc(OC)c1`, the T/C turned out to be 1.81.

As for `Cc1ccc(NC(=O)CSc2nc3c(I)cc(I)cc3c(=O)n2-c2ccc(S(N)(=O)=O)cc2)cc1`, the T/C is 1.13.

With `CCc1ccc(NC(=O)CSc2nc3c(I)cc(I)cc3c(=O)n2-c2ccc(S(N)(=O)=O)cc2)cc1`, the T/C amounted to 1.14.

On to `Cc1ccccc1NC(=O)CSc1nc2c(I)cc(I)cc2c(=O)n1-c1ccc(S(N)(=O)=O)cc1`, for which the T/C came out at 1.43.

On to `Cc1cccc(NC(=O)CSc2nc3c(I)cc(I)cc3c(=O)n2-c2ccc(S(N)(=O)=O)cc2)c1`, for which the T/C worked out at 1.48.

For the next assay, the system named is Nrf2 (Mus musculus). In words: Activation of Nrf2 in mouse Hepa1c1c7 cells assessed as increase in NQO1 activity at 0.4 uM using menadione as substrate incubated for 20 mins followed by substrate addition and measured after 30 mins by spectrophotometry relative to control. As to conditions: filed as activator, time 50.0 min.
For `COc1ccc(NC(=O)CSc2nc3c(I)cc(I)cc3c(=O)n2-c2ccc(S(N)(=O)=O)cc2)cc1`, the T/C was found to be 1.01.

Take `NS(=O)(=O)c1ccc(-n2c(S)nc3c(I)cc(I)cc3c2=O)cc1`: the T/C stood at 1.01.

Turning to `COc1cc(NC(=O)CSc2nc3c(I)cc(I)cc3c(=O)n2-c2ccc(S(N)(=O)=O)cc2)cc(OC)c1`, the T/C stood at 1.

Regarding `Cc1ccc(NC(=O)CSc2nc3c(I)cc(I)cc3c(=O)n2-c2ccc(S(N)(=O)=O)cc2)cc1`, the T/C was determined as 1.01.

Regarding `CCc1ccc(NC(=O)CSc2nc3c(I)cc(I)cc3c(=O)n2-c2ccc(S(N)(=O)=O)cc2)cc1`, the T/C worked out at 0.98.

As for `Cc1ccccc1NC(=O)CSc1nc2c(I)cc(I)cc2c(=O)n1-c1ccc(S(N)(=O)=O)cc1`, the T/C amounted to 1.04.

On to `Cc1cccc(NC(=O)CSc2nc3c(I)cc(I)cc3c(=O)n2-c2ccc(S(N)(=O)=O)cc2)c1`, for which the T/C came out at 1.05.

For a further assay, the system named is Nrf2 (Mus musculus). As to the kind of experiment: Activation of Nrf2 in mouse Hepa1c1c7 cells assessed as increase in NQO1 activity at 0.8 uM using menadione as substrate incubated for 20 mins followed by substrate addition and measured after 30 mins by spectrophotometry relative to control. As to conditions: filed as activator, time 50.0 min.
In the case of `COc1ccc(NC(=O)CSc2nc3c(I)cc(I)cc3c(=O)n2-c2ccc(S(N)(=O)=O)cc2)cc1`, the T/C was 1.02.

Take `NS(=O)(=O)c1ccc(-n2c(S)nc3c(I)cc(I)cc3c2=O)cc1`: the T/C amounted to 1.04.

For the molecule `COc1cc(NC(=O)CSc2nc3c(I)cc(I)cc3c(=O)n2-c2ccc(S(N)(=O)=O)cc2)cc(OC)c1`, the T/C stood at 1.01.

As to `Cc1ccc(NC(=O)CSc2nc3c(I)cc(I)cc3c(=O)n2-c2ccc(S(N)(=O)=O)cc2)cc1`, the T/C turned out to be 0.99.

For the molecule `CCc1ccc(NC(=O)CSc2nc3c(I)cc(I)cc3c(=O)n2-c2ccc(S(N)(=O)=O)cc2)cc1`, the T/C was determined as 0.99.

Regarding `Cc1ccccc1NC(=O)CSc1nc2c(I)cc(I)cc2c(=O)n1-c1ccc(S(N)(=O)=O)cc1`, the T/C was 1.04.

As to `Cc1cccc(NC(=O)CSc2nc3c(I)cc(I)cc3c(=O)n2-c2ccc(S(N)(=O)=O)cc2)c1`, the T/C was determined as 1.01.

The test system of a further assay is Nrf2 (Mus musculus). As to the kind of experiment: Activation of Nrf2 in mouse Hepa1c1c7 cells assessed as increase in NQO1 activity at 1.6 uM using menadione as substrate incubated for 20 mins followed by substrate addition and measured after 30 mins by spectrophotometry relative to control. Particulars: filed as activator, time 50.0 min.
For the molecule `COc1ccc(NC(=O)CSc2nc3c(I)cc(I)cc3c(=O)n2-c2ccc(S(N)(=O)=O)cc2)cc1`, the T/C came to 1.

Regarding `NS(=O)(=O)c1ccc(-n2c(S)nc3c(I)cc(I)cc3c2=O)cc1`, the T/C turned out to be 1.06.

In the case of `COc1cc(NC(=O)CSc2nc3c(I)cc(I)cc3c(=O)n2-c2ccc(S(N)(=O)=O)cc2)cc(OC)c1`, the T/C is 1.02.

As for `Cc1ccc(NC(=O)CSc2nc3c(I)cc(I)cc3c(=O)n2-c2ccc(S(N)(=O)=O)cc2)cc1`, the T/C came out at 0.99.

As to `CCc1ccc(NC(=O)CSc2nc3c(I)cc(I)cc3c(=O)n2-c2ccc(S(N)(=O)=O)cc2)cc1`, the T/C is 0.98.

Consider `Cc1ccccc1NC(=O)CSc1nc2c(I)cc(I)cc2c(=O)n1-c1ccc(S(N)(=O)=O)cc1`, for which the T/C is 1.04.

`Cc1cccc(NC(=O)CSc2nc3c(I)cc(I)cc3c(=O)n2-c2ccc(S(N)(=O)=O)cc2)c1`: the T/C was found to be 1.04.

The target in the next assay is Nuclear factor erythroid 2-related factor 2 (Mus musculus) (UniProt Q60795). In words: Activation of Nrf2 in mouse Hepa1c1c7 cells assessed as increase in NQO1 activity at 6.25 uM using menadione as substrate incubated for 20 mins followed by substrate addition and measured after 30 mins by spectrophotometry relative to control. As to conditions: filed as activator, time 50.0 min.
Sequence of Nuclear factor erythroid 2-related factor 2 (Mus musculus) (Q60795 whole entry, looked up): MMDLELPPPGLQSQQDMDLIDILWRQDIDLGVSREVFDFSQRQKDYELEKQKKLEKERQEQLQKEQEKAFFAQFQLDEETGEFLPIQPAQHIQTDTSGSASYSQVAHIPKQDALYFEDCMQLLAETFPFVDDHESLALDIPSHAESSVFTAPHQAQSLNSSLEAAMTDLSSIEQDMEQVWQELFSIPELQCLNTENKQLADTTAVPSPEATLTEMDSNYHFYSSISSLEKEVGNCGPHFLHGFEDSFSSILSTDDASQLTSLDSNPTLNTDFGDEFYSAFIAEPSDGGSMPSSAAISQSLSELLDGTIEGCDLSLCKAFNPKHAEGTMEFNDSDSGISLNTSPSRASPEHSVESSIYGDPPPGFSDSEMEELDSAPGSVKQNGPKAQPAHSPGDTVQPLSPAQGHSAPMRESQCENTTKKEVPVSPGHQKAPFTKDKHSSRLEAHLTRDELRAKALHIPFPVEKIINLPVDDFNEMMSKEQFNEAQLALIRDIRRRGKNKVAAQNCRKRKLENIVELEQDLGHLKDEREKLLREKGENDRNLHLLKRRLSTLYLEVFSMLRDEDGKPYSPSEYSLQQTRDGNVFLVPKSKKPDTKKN
In the case of `COc1ccc(NC(=O)CSc2nc3c(I)cc(I)cc3c(=O)n2-c2ccc(S(N)(=O)=O)cc2)cc1`, the T/C turned out to be 0.99.

For the molecule `NS(=O)(=O)c1ccc(-n2c(S)nc3c(I)cc(I)cc3c2=O)cc1`, the T/C stood at 1.02.

As to `COc1cc(NC(=O)CSc2nc3c(I)cc(I)cc3c(=O)n2-c2ccc(S(N)(=O)=O)cc2)cc(OC)c1`, the T/C came out at 1.22.

In the case of `Cc1ccc(NC(=O)CSc2nc3c(I)cc(I)cc3c(=O)n2-c2ccc(S(N)(=O)=O)cc2)cc1`, the T/C was found to be 0.99.

Turning to `CCc1ccc(NC(=O)CSc2nc3c(I)cc(I)cc3c(=O)n2-c2ccc(S(N)(=O)=O)cc2)cc1`, the T/C is 0.99.

Regarding `Cc1ccccc1NC(=O)CSc1nc2c(I)cc(I)cc2c(=O)n1-c1ccc(S(N)(=O)=O)cc1`, the T/C was found to be 1.13.

On to `Cc1cccc(NC(=O)CSc2nc3c(I)cc(I)cc3c(=O)n2-c2ccc(S(N)(=O)=O)cc2)c1`, for which the T/C was determined as 1.06.

A further assay shares this target. In words: Activation of Nrf2 in mouse Hepa1c1c7 cells assessed as increase in NQO1 activity at 12.5 uM using menadione as substrate incubated for 20 mins followed by substrate addition and measured after 30 mins by spectrophotometry relative to control. Particulars: filed as activator, time 50.0 min.
With `COc1ccc(NC(=O)CSc2nc3c(I)cc(I)cc3c(=O)n2-c2ccc(S(N)(=O)=O)cc2)cc1`, the T/C was found to be 1.08.

With `NS(=O)(=O)c1ccc(-n2c(S)nc3c(I)cc(I)cc3c2=O)cc1`, the T/C came out at 1.06.

As for `COc1cc(NC(=O)CSc2nc3c(I)cc(I)cc3c(=O)n2-c2ccc(S(N)(=O)=O)cc2)cc(OC)c1`, the T/C worked out at 1.52.

For the molecule `Cc1ccc(NC(=O)CSc2nc3c(I)cc(I)cc3c(=O)n2-c2ccc(S(N)(=O)=O)cc2)cc1`, the T/C was 1.

Turning to `CCc1ccc(NC(=O)CSc2nc3c(I)cc(I)cc3c(=O)n2-c2ccc(S(N)(=O)=O)cc2)cc1`, the T/C is 1.01.

Regarding `Cc1ccccc1NC(=O)CSc1nc2c(I)cc(I)cc2c(=O)n1-c1ccc(S(N)(=O)=O)cc1`, the T/C came to 1.27.

Turning to `Cc1cccc(NC(=O)CSc2nc3c(I)cc(I)cc3c(=O)n2-c2ccc(S(N)(=O)=O)cc2)c1`, the T/C worked out at 1.14.

Another assay has as its system Nrf2 (Mus musculus). As to the kind of experiment: Activation of Nrf2 in mouse Hepa1c1c7 cells assessed as increase in NQO1 activity at 3.125 uM using menadione as substrate incubated for 20 mins followed by substrate addition and measured after 30 mins by spectrophotometry relative to control. As to conditions: filed as activator, time 50.0 min.
Turning to `COc1ccc(NC(=O)CSc2nc3c(I)cc(I)cc3c(=O)n2-c2ccc(S(N)(=O)=O)cc2)cc1`, the T/C was 0.98.

Take `NS(=O)(=O)c1ccc(-n2c(S)nc3c(I)cc(I)cc3c2=O)cc1`: the T/C worked out at 1.01.

Take `COc1cc(NC(=O)CSc2nc3c(I)cc(I)cc3c(=O)n2-c2ccc(S(N)(=O)=O)cc2)cc(OC)c1`: the T/C is 1.06.

On to `Cc1ccc(NC(=O)CSc2nc3c(I)cc(I)cc3c(=O)n2-c2ccc(S(N)(=O)=O)cc2)cc1`, for which the T/C was 0.97.

Consider `CCc1ccc(NC(=O)CSc2nc3c(I)cc(I)cc3c(=O)n2-c2ccc(S(N)(=O)=O)cc2)cc1`, for which the T/C stood at 0.97.

As to `Cc1ccccc1NC(=O)CSc1nc2c(I)cc(I)cc2c(=O)n1-c1ccc(S(N)(=O)=O)cc1`, the T/C was found to be 1.06.

Take `Cc1cccc(NC(=O)CSc2nc3c(I)cc(I)cc3c(=O)n2-c2ccc(S(N)(=O)=O)cc2)c1`: the T/C is 1.05.
